Values of other authors, collected in patent publication US6399104B1, “Pharmaceutical compositions” (AstraZeneca UK Limited, priority 1997, dated 2002).

Conditions: as disclosed in U.S. Pat. No. 5,319,097

COc1cc(C(=O)NS(=O)(=O)c2ccccc2C)ccc1Cc1cn(C)c2ccc(NC(=O)OC3CCCC3)cc12 [Form A, N-[4-[5-(cyclopentyloxycarbonyl)amino-1-methylindol-3-ylmethyl]-3-methoxybenzoyl]-2-methylbenzene]
bioavailability: good bioavailability
